Experimental data taken from patent US20160264925A1, “Reagents for Lysis of Bacterial Cells” (Roche Diagnostics Operations, Inc., priority 2009, published 2016).

Tests used:
[1] = system: Staphylococcus carnosus BMTU 7329; test: Lysis of microbial cells in suspension, microscopic assessment (SYTO 9 staining): Gram-positive; format: cell-based; conditions: for lysis of Gram-positive cell walls, summary in words: reagent and concentration as in Tables 1 and 2 (Example 4)
Experimental: (§1) Cell suspensions containing between about 10^7 and about 10^8 cells/ml were prepared.
(§2) The LIVE/DEAD® BacLight Bacterial Viability Kits supplied by Invitrogen utilize mixtures of the SYTO® 9 green-fluorescent nucleic acid stain (Invitrogen) and the red-fluorescent nucleic acid stain, propidium iodide. These stains differ both in their spectral characteristics and in their ability to penetrate healthy bacterial cells. When used alone, the SYTO® 9 stain generally labels all bacteria in a population—those with intact membranes and those with damaged membranes. In contrast, propidium iodide penetrates only bacteria with damaged membranes, causing a reduction in the SYTO® 9 stain fluorescence when both dyes are present.
(§3) Each mixture was incubated for 15 min at 56° C.
(§4) For the lysis experiments, all possible combinations of lysis buffers L1.1 to L11.1 with cell suspensions (A), (B), and (C) were examined.
(§5) An incubated cell suspension with bacteria was scored as a “positive” lysate if in the incubated mixture SYTO® 9 stainable morphological structures corresponding to the respective bacterial cells were not detectable. Otherwise, when SYTO® 9 stainable morphological structures were still present, the incubated cell suspension was scored as “negative”. In an analogous way, a cell suspension with yeast cells was scored, however based on Calcofluor™ White M2R staining.
(§6) In each experiment a direct comparison was made using the fluorescent label on an untreated but similarly diluted cell suspension as a reference. In order to exclude any influence of a compound in the lysis reagents on fluorescence, any presence or absence of morphological structures corresponding to the respective microbial cells was verified using light microscopy.

[2] = system: Escherichia coli BMTU 3294; test: Lysis of microbial cells in suspension, microscopic assessment (SYTO 9 staining): Gram-negative; format: cell-based; conditions: for lysis of Gram-negative cell walls, summary in words: reagent and concentration as in Tables 1 and 2 (Example 4)
Experimental: as §1, §2, §3, §4, §5, §6

[3] = about 2.25 M in the mixture with the bacterial suspension

With “1-butyl-3-methyl-imidazolium-2(2-methoxyethoxy)ethylsulfate [ECOENG™41M]” the “concentration required to destroy Gram-positive cell walls, relative to BMIM-SCN (about 2.25 M in the mixture)” value ([1]; lysis reagent L2.1) was “a quarter of this concentration”, the “lysis of Gram-positive cell walls, summary in words” value [1] was “destroy the cell walls of both Gram-positive and Gram-negative cells” and the “concentration required to destroy Gram-negative cell walls together with Gram-positive, relative to BMIM-SCN (about 2.25 M in the mixture)” value ([2]; lysis reagent L2.1) was “a quarter of this concentration”. The “lysis of Gram-negative cell walls, summary in words” value [2] was “destroy the cell walls of both Gram-positive and Gram-negative cells”.
“1-butyl-3-methyl-imidazolium-octylsulfate” was tested, and the “destruction of Gram-positive cell walls” value ([1]; 247.5 mM (or lower)) was “falls short of destroying bacterial cell walls”, the “destruction of Gram-positive cell walls” value ([1]; any concentration tested) was “no concentration was found” and the “destruction of Gram-negative cell walls” value ([2]; 247.5 mM (or lower)) was “falls short of destroying bacterial cell walls”. For the same molecule, the “destruction of Gram-negative cell walls” value ([2]; higher than 247.5 mM and up to 375 mM) was “capable of destroying the cell walls of Gram-negative bacteria”.
In the case of “1-butyl-3-methyl-imidazolium-thiocyanate [BMIM-SCN]”, the “destruction of Gram-positive cell walls” value ([1]; 375 mM in the mixture) is reported as “falls short of destroying bacterial cell walls”, the “destruction of Gram-positive cell walls” value [1, 3] is reported as “destroyed” and the “lysis of Gram-positive cell walls, summary in words” value [1] is reported as “destroy the cell walls of both Gram-positive and Gram-negative cells”. For the same molecule, the “destruction of Gram-negative cell walls” value ([2]; 375 mM in the mixture) was “falls short of destroying bacterial cell walls”, the “destruction of Gram-negative cell walls” value ([2]; about 562.5 mM in the mixture) was “lysed” and the “destruction of Gram-negative cell walls” value [2, 3] was “destroyed”. For the same molecule, the “lysis of Gram-negative cell walls, summary in words” value [2] was “destroy the cell walls of both Gram-positive and Gram-negative cells”.
`N#CS.N=C(N)N` [GuaSCN, Guanidine thiocyanate, reference compound] was tested, and the “destruction of Gram-positive cell walls” value ([1]; 375 mM in the mixture) was “ineffective”, the “destruction of Gram-positive cell walls” value [1, 3] was “destroyed” and the “destruction of Gram-negative cell walls” value ([2]; 375 mM in the mixture) was “ineffective”. For the same molecule, the “destruction of Gram-negative cell walls” value [2, 3] was “destroyed”.
In the case of `Cc1ccc(S(=O)(=O)[O-])cc1.Cc1ccc(S(=O)(=O)[O-])cc1.Cn1cc[n+](CCCC[n+]2ccn(C)c2)c1` [MITS, 1-methyl-1-[4-(3-methyl-3H-imidazol-1-ium)-but-1-yl]-3H-imidazolium-di(toluylsulfate)], the “destruction of Gram-positive cell walls” value ([1]; 247.5 mM (or lower)) is reported as “neither Gram-negative nor Gram-positive cell walls were destroyed”, the “destruction of Gram-positive cell walls” value ([1]; 247.5 mM increased by about 50% or more) is reported as “destruction of Gram-positive cell walls” and the “destruction of Gram-negative cell walls” value ([2]; 247.5 mM (or lower)) is reported as “neither Gram-negative nor Gram-positive cell walls were destroyed”.
